Source: patent US12077503B2, “Substituted cyclic amides and their use as herbicides” (FMC CORPORATION, priority 2015, dated 2024)
Where two headings read alike, the source gives them in different places.

Experiments:
Assay type in all cases: in vivo
[1] = test system: giant foxtail (Setaria faberii); assay: Test A postemergence; settings: Setaria faberi, post-emergence, 240 h; for pest or weed control at 125 g/ha: 125 g ai/ha, read-out: Foxtail, Giant plant response rating (0 to 100 scale); for pest or weed control at 500 g/ha: 500 g ai/ha
How it was run: (§1)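 Treatment is preemergence as a directed soil spray after planting, or postemergence at the one- to two-leaf stage, with test chemical in a non-phytotoxic solvent mixture plus surfactant. Plants stay in the greenhouse about 10 d before visual injury scoring on a 0 to 100 scale versus untreated controls.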

[2] = test system: wheat (Triticum aestivum); assay: Test A postemergence; settings: Triticum aestivum, post-emergence, 240 h; for plant injury at 125 g/ha: 125 g ai/ha, read-out: Wheat plant response rating (0 to 100 scale); for plant injury at 500 g/ha: 500 g ai/ha
How it was run: as §1

Kochia (Kochia scoparia) [3] = assay: Test A postemergence; settings: Bassia scoparia, post-emergence, 240 h; for pest or weed control at 125 g/ha: 125 g ai/ha, read-out: Kochia plant response rating (0 to 100 scale); for pest or weed control at 500 g/ha: 500 g ai/ha
How it was run: as §1

[4] = test system: pigweed (Amaranthus retroflexus); assay: Test A postemergence; settings: Amaranthus retroflexus, post-emergence, 240 h; for pest or weed control at 125 g/ha: 125 g ai/ha, read-out: Pigweed plant response rating (0 to 100 scale); for pest or weed control at 500 g/ha: 500 g ai/ha
How it was run: as §1

[5] = test system: Galium (catchweed bedstraw, Galium aparine); assay: Test A postemergence; settings: Galium, post-emergence, 240 h; for pest or weed control at 125 g/ha: 125 g ai/ha, read-out: Galium plant response rating (0 to 100 scale); for pest or weed control at 500 g/ha: 500 g ai/ha
How it was run: as §1

[6] = test system: giant foxtail (Setaria faberii); assay: Test A preemergence; settings: Setaria faberi, pre-emergence, 240 h, preemergence, 0 to 100 scale where 0 is no effect and 100 is complete control, read-out: Foxtail, Giant plant response rating; for pest or weed control at 125 g/ha: 125 g ai/ha, visual injury rating, approximately 10 d; for pest or weed control at 500 g/ha: 500 g ai/ha
How it was run: as §1

[7] = test system: barnyardgrass (Echinochloa crus-galli); assay: Test A preemergence; settings: Echinochloa crus-galli, pre-emergence, 240 h, preemergence, 0 to 100 scale where 0 is no effect and 100 is complete control, read-out: Barnyardgrass plant response rating; for pest or weed control at 125 g/ha: 125 g ai/ha, visual injury rating, approximately 10 d; for pest or weed control at 500 g/ha: 500 g ai/ha
How it was run: as §1

[8] = test system: ragweed (common ragweed, Ambrosia elatior); assay: Test A preemergence; settings: Ambrosia artemisiifolia, pre-emergence, 240 h, preemergence, 0 to 100 scale where 0 is no effect and 100 is complete control, read-out: Ragweed plant response rating; for pest or weed control at 500 g/ha: 500 g ai/ha
How it was run: as §1

[9] = test system: ryegrass, Italian (Italian ryegrass, Lolium multiflorum); assay: Test A preemergence; settings: Lolium multiflorum, pre-emergence, 240 h, preemergence, 0 to 100 scale where 0 is no effect and 100 is complete control, read-out: Ryegrass, Italian plant response rating; for pest or weed control at 125 g/ha: 125 g ai/ha, visual injury rating, approximately 10 d; for pest or weed control at 500 g/ha: 500 g ai/ha
How it was run: as §1

Kochia (Kochia scoparia) [10] = assay: Test A preemergence; settings: Bassia scoparia, pre-emergence, 240 h, preemergence, 0 to 100 scale where 0 is no effect and 100 is complete control, read-out: Kochia plant response rating; for pest or weed control at 125 g/ha: 125 g ai/ha, visual injury rating, approximately 10 d; for pest or weed control at 500 g/ha: 500 g ai/ha
How it was run: as §1

[11] = test system: pigweed (Amaranthus retroflexus); assay: Test A preemergence; settings: Amaranthus retroflexus, pre-emergence, 240 h, preemergence, 0 to 100 scale where 0 is no effect and 100 is complete control, read-out: Pigweed plant response rating; for pest or weed control at 125 g/ha: 125 g ai/ha, visual injury rating, approximately 10 d; for pest or weed control at 500 g/ha: 500 g ai/ha
[12] = test system: barnyardgrass (Echinochloa crus-galli); assay: Test B flooded paddy test; settings: Echinochloa crus-galli, 250 g ai/ha, Flood; 0 to 100 scale where 0 is no effect and 100 is complete control; read-out: Barnyardgrass plant response rating
How it was run: (§2)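 Response scored visually against untreated controls, 0 = no effect and 100 = complete control, 13–15 d after treatment in the greenhouse. Compounds added to paddy water held 3 cm above soil surface. Treatment given at 2-leaf stage.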

[13] = test system: ducksalad (Heteranthera limosa); assay: Test B flooded paddy test; settings: Heteranthera limosa, 250 g ai/ha, Flood; 0 to 100 scale where 0 is no effect and 100 is complete control; read-out: Ducksalad plant response rating
How it was run: as §2

[14] = test system: sedge, umbrella (small-flower umbrella sedge, Cyperus difformis); assay: Test B flooded paddy test; settings: Cyperus difformis, 250 g ai/ha, Flood; 0 to 100 scale where 0 is no effect and 100 is complete control; read-out: Sedge, Umbrella plant response rating
How it was run: as §2

rice (Oryra sativa) = assay: Test B flooded paddy test; settings: Oryza sativa, 250 g ai/ha, Flood; 0 to 100 scale where 0 is no effect and 100 is complete control; read-out: Rice plant response rating
How it was run: as §2

[15] = postemergence, visual injury vs untreated controls after approx. 10 d, 0 = no effect, 100 = complete control
[16] = Postemergence, visual rating about 10 d after treatment

SMILES | pest or weed control at 125 g/ha [6] [%] | pest or weed control at 500 g/ha [6] [%] | pest or weed control at 125 g/ha [7] [%] | pest or weed control at 500 g/ha [7] [%] | pest or weed control at 500 g/ha [8] [%] | pest or weed control at 125 g/ha [9] [%] | pest or weed control at 500 g/ha [9] [%] | pest or weed control at 125 g/ha (Kochia (Kochia scoparia) [10]) [%] | pest or weed control at 500 g/ha (Kochia (Kochia scoparia) [10]) [%] | pest or weed control at 125 g/ha [11] [%] | pest or weed control at 500 g/ha [11] [%] | pest or weed control at 250 g/ha [12] [%] | pest or weed control at 250 g/ha [13] [%] | pest or weed control at 250 g/ha [14] [%] | pest or weed control at 250 g/ha (rice (Oryra sativa)) [%] | also measured
Cc1cc([C@H]2CN(C)C(=O)[C@@H]2C(=O)Nc2ccccc2F)no1 [Compound 1194] | 0 | 20 | 0 | 30 | 0 | 0 | 0 | 0 | 0 | 0 | 0 | 0 | 0 | 0 | 0 | pest or weed control at 125 g/ha [1, 15]: 0%; pest or weed control at 500 g/ha ([1]; postemergence, 0 to 100 scale, 0 is no effect, 100 is complete control, read-out: Foxtail, Giant plant response rating): 20%; plant injury at 125 g/ha [2, 15]: 0%; plant injury at 500 g/ha ([2]; postemergence, 0 to 100 scale, 0 is no effect, 100 is complete control, read-out: Wheat plant response rating): 0%; pest or weed control at 125 g/ha (Kochia (Kochia scoparia) [3]; [15]): 0%; pest or weed control at 500 g/ha (Kochia (Kochia scoparia) [3]; postemergence, 0 to 100 scale, 0 is no effect, 100 is complete control, read-out: Kochia plant response rating): 0%; pest or weed control at 125 g/ha [4, 15]: 0%; pest or weed control at 500 g/ha ([4]; postemergence, 0 to 100 scale, 0 is no effect, 100 is complete control, read-out: Pigweed plant response rating): 0%; pest or weed control at 125 g/ha [5, 15]: 0%; pest or weed control at 500 g/ha ([5]; postemergence, 0 to 100 scale, 0 is no effect, 100 is complete control, read-out: Galium plant response rating): 0%; pest or weed control at 125 g/ha ([8]; 125 g ai/ha, visual injury rating, approximately 10 d): 0%
Cc1cc(F)cc([C@H]2CNC(=O)[C@@H]2C(=O)Nc2ccccc2S(C)(=O)=O)c1 [Compound 1307] | 50 | 90 | 80 | 90 | 60 | 0 | 0 | 20 | 90 | 0 | 0 | 30 | 100 | 0 | 20 | pest or weed control at 125 g/ha [1, 16]: 0%; pest or weed control at 500 g/ha ([1]; Postemergence, visual injury, 0 to 100 scale (0 no effect, 100 complete control), approx. 10 d, read-out: Plant response rating, Foxtail, Giant): 20%; plant injury at 125 g/ha [2, 16]: 0%; plant injury at 500 g/ha ([2]; Postemergence, visual injury, 0 to 100 scale (0 no effect, 100 complete control), approx. 10 d, read-out: Plant response rating, Wheat): 0%; pest or weed control at 125 g/ha (Kochia (Kochia scoparia) [3]; [16]): 0%; pest or weed control at 500 g/ha (Kochia (Kochia scoparia) [3]; Postemergence, visual injury, 0 to 100 scale (0 no effect, 100 complete control), approx. 10 d, read-out: Plant response rating, Kochia): 40%; pest or weed control at 125 g/ha [4, 16]: 0%; pest or weed control at 500 g/ha ([4]; Postemergence, visual injury, 0 to 100 scale (0 no effect, 100 complete control), approx. 10 d, read-out: Plant response rating, Pigweed): 0%; pest or weed control at 125 g/ha [5, 16]: 30%; pest or weed control at 500 g/ha ([5]; Postemergence, visual injury, 0 to 100 scale (0 no effect, 100 complete control), approx. 10 d, read-out: Plant response rating, Galium): 40%
